Columns and labels:
[1] = 101 kPa, Liquid, Vibrating tube method
[2] = refractive index (Na D-line) (dimensionless); details: 101.33 kPa, Liquid, Standard Abbe refractometry
[3] = wn = mass fraction of the nth substance listed; details: 101 kPa, Liquid, Vibrating tube method
[4] = refractive index (Na D-line) (dimensionless); wn = mass fraction of the nth substance listed; details: 101 kPa, Liquid, Standard Abbe refractometry

CCCCn1cc[n+](C)c1.F[B-](F)(F)F [1-butyl-3-methylimidazolium tetrafluoroborate]
Details	mass density, [1] [kg/m3]	refractive index, [2]
298.15 K	1202.87	1.422
323.15 K	1185.11	1.4155

CCCCn1cc[n+](C)c1.F[B-](F)(F)F [1-butyl-3-methylimidazolium tetrafluoroborate] + CC(C)O
323.15 K
Details	mass density, [3] [kg/m3]	refractive index, [4]
w2 = 0	1185.11	1.4155
w2 = 0.0089	1180.38	1.4152
w2 = 0.0287	1170.07	1.4143
w2 = 0.0624	1147.36	1.4122
w2 = 0.1053	1122.14	1.4106
w2 = 0.1649	1091.32	1.4077
w2 = 0.2183	1061.8	1.4071
w2 = 0.2719	1031.58	1.406
w2 = 0.324	1012	1.403
w2 = 0.4108	973.34	1.3989
w2 = 0.5167	927.14	1.3948
w2 = 0.5965	901.85	1.391
w2 = 0.6194	888.84	1.3904
w2 = 0.7697	835.46	1.3817
w2 = 0.8372	809.26	1.3749
w2 = 0.9344	778.75	1.3668

CCCCn1cc[n+](C)c1.F[B-](F)(F)F [1-butyl-3-methylimidazolium tetrafluoroborate] + O
298.15 K
Details	mass density, [3] [kg/m3]	refractive index, [4]
w2 = 0	1202.87	1.422
w2 = 0.0098	1199.53	1.4206
w2 = 0.0167	1196.97	1.4194
w2 = 0.0205	1195.79	1.4191
w2 = 0.029	1193.14	1.418
w2 = 0.0396	1189.89	1.4169
w2 = 0.0585	1184.23	1.4141
w2 = 0.0982	1173.48	1.4094
w2 = 0.154	1159.29	1.4033
w2 = 0.2046	1147.24	1.398
w2 = 0.2517	1136.64	1.3934
w2 = 0.3043	1125.12	1.3883
w2 = 0.3966	1106.01	1.3801
w2 = 0.5061	1084.29	1.3705
w2 = 0.6986	1048.69	1.3549
w2 = 0.8897	1015.75	1.3406

CC(C)O [propan-2-ol]
Details	mass density, [1] [kg/m3]	refractive index, [2]
298.15 K	780.82	1.3751
323.15 K	758.67	1.3604

CC(C)O [propan-2-ol] + CCCCn1cc[n+](C)c1.F[B-](F)(F)F
323.15 K, w1 = 1
Details	mass density [kg/m3]	refractive index
[3]	758.67	–
[4]	–	1.3604

CC(C)O [propan-2-ol] + O
298.15 K
Details	mass density, [3] [kg/m3]	refractive index, [4]
w1 = 0.048	–	1.3365
w1 = 0.0915	982.05	–
w1 = 0.0987	–	1.3412
w1 = 0.1446	–	1.3458
w1 = 0.2009	–	1.3502
w1 = 0.2131	960.29	–
w1 = 0.241	–	1.3536
w1 = 0.2951	–	1.3569
w1 = 0.3299	936.93	–
w1 = 0.3387	–	1.3597
w1 = 0.3921	–	1.3622
w1 = 0.4412	–	1.3645
w1 = 0.4795	906.69	–
w1 = 0.4805	–	1.366
w1 = 0.5009	901.31	–
w1 = 0.5386	–	1.3681
w1 = 0.618	874.45	–
w1 = 0.6205	–	1.3707
w1 = 0.6337	–	1.3711
w1 = 0.6782	–	1.3722
w1 = 0.684	858.73	–
w1 = 0.7452	–	1.3737
w1 = 0.7861	–	1.3744
w1 = 0.7874	834.01	–
w1 = 0.8541	–	1.3752
w1 = 0.8788	811.99	–
w1 = 0.8959	–	1.3756
w1 = 0.8976	807.44	–
w1 = 0.9154	803.01	–
w1 = 0.9311	799.05	–
w1 = 0.9492	–	1.3756
w1 = 0.9502	794.22	–
w1 = 0.9752	787.71	–
w1 = 0.9895	783.8	–
w1 = 1	780.82	1.3751

O [water]
Details	refractive index
[2], 298.15 K	1.3325

O [water] + CC(C)O
Details	refractive index
[4], 298.15 K, w2 = 0	1.3325

O [water] + CCCCn1cc[n+](C)c1.F[B-](F)(F)F
Details	refractive index
[4], 298.15 K, w1 = 1	1.3325
